Measured values reported in patent US6858638B2, “Substituted indazoles, compositions containing them, method of production and use” (Aventis Pharma S.A., priority 2002, dated 2005).

Tests used:
Format in all cases: biochemical
human FAK = molecular target: T1, human FAK (Homo sapiens, UniProt Q05397); experiment: FAK autophosphorylation inhibition, time resolved fluorescence (HTRF) assay; details: 10 μM (values without asterisk); read-out: FAK % inhib at 10 μM
T1 construct: The complete cDNA of human FAK; made in house; host or cells: baculovirus expression system (vector pFastBac HTc)
Method in brief: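 His-tagged full-length human FAK from baculovirus (6.6 µg/ml) self-phosphorylates with 15 µM ATP in HEPES pH 7.2, MgCl2, vanadate, 1 h at 37 °C. HTRF detection (Eu-anti-phosphotyrosine / XL665-anti-His), 665/620 nm ratio; % inhibition vs untreated control, duplicate mean.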

human KDR enzyme = molecular target: T2, human KDR enzyme (Homo sapiens, UniProt P35968); experiment: KDR substrate (PLCγ) phosphorylation, scintillation assay; details: 10 μM; read-out: KDR % inhib at 10 μM
T2 construct: The cytoplasmic domain of the human KDR enzyme; GST; made in house; host or cells: SF21 insect cells (baculovirus)
Method in brief: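 GST-fused human KDR cytoplasmic domain from SF21 cells (about 60% pure, 100 ng) phosphorylated 2 μg of GST-PLCγ SH2-SH3 fragment. The trigger solution held γ33P-ATP with 2 μM cold ATP, in MOPS buffer pH 7.2 with Mg2+, Mn2+, vanadate and NaF. Reactions ran 1 h at 37 °C, were stopped with EDTA and counted by scintillation; results are % inhibition versus the no-compound control.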

Aurora2 kinase = molecular target: T3, Aurora2 kinase (Homo sapiens, UniProt O14965); experiment: Aurora2 kinase radioactivity scintillation assay using nickel chelate (NuMA substrate); details: 10 μM; read-out: Aurora2 % inhib at 10 μM
T3 construct: A complete recombinant Aurora2 enzyme; His tag (N); made in house; host or cells: E. coli
T3 sequence (O14965 1-403): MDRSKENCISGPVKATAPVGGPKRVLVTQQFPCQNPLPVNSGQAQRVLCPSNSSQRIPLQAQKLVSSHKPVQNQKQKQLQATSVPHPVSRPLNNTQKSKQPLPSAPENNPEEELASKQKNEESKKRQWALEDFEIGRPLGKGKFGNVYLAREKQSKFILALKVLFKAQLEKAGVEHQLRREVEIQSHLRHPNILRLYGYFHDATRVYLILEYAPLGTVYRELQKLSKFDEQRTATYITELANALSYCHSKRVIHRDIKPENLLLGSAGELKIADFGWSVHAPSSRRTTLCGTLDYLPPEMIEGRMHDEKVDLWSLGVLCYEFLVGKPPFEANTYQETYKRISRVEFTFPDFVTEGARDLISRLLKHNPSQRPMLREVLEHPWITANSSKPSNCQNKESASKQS
Method in brief: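 His-tagged full-length Aurora2 (0.02 μM, E. coli) phosphorylating His-tagged NuMA C-terminal fragment (0.5 μM) with 1 μM ATP plus [33P]-ATP, 30 min at 37 °C, pH 7.5 Tris buffer with MgCl2. Nickel-chelate scintillation read; percent inhibition versus no-compound control.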

[1] = molecular target: T4, human IGF1R cytoplasmic domain (Homo sapiens, UniProt P08069); experiment: IGF1R autophosphorylation inhibition, time resolved fluorescence (HTRF) assay; details: 10 μM; read-out: IGF1R % inhib at 10 μM
T4 construct: The human IGF1R cytoplasmic domain was cloned; made in house; host or cells: SF21 insect cells (baculovirus)
Method in brief: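 GST-tagged human IGF1R cytoplasmic domain from SF21 cells incubated with compound in 50 mM Hepes pH 7.5, 5 mM MnCl2, 50 mM NaCl, […] ATP. Autophosphorylation detected by HTRF (Eu-K anti-phosphotyrosine, XL665 anti-GST) after EDTA/KF stop; percentage inhibition versus no-compound control.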

T1 sequence (Q05397 whole entry): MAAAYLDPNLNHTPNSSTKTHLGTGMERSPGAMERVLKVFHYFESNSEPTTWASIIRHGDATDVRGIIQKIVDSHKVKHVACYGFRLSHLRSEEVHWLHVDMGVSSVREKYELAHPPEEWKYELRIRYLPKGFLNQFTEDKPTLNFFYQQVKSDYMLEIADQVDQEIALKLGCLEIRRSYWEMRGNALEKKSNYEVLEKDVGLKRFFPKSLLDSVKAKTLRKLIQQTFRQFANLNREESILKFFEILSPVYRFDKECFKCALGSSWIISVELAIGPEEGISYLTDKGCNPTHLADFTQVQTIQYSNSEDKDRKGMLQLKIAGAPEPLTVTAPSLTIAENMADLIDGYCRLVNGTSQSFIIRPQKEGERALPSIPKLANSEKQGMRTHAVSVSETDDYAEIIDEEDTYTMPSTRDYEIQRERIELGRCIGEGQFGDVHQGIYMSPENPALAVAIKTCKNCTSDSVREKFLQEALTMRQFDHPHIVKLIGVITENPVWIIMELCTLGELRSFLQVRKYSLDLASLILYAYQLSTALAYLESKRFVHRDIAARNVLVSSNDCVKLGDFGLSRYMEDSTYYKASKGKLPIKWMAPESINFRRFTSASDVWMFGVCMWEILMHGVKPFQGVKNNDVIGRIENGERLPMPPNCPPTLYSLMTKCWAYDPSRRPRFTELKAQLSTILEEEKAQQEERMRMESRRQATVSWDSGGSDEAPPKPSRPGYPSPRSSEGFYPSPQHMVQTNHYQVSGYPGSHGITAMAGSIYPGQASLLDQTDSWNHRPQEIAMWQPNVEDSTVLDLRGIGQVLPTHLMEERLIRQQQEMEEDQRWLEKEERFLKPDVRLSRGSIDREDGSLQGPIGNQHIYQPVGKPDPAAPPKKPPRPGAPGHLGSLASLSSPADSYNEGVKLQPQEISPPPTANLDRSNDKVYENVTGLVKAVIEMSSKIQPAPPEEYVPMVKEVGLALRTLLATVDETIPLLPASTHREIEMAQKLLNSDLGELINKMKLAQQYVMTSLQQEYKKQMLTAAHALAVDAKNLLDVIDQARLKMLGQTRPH
T4 sequence (P08069 960-1367 limits assumed): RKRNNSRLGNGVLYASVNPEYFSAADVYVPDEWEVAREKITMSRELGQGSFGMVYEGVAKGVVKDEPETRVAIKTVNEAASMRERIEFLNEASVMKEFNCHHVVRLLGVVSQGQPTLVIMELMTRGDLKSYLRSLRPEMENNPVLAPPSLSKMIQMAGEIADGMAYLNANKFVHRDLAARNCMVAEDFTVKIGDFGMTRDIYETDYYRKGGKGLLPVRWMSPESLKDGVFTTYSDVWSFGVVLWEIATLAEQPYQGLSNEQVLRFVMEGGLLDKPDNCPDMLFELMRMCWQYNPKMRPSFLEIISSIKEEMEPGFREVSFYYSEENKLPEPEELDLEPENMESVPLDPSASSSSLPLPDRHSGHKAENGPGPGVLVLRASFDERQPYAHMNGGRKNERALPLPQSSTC
T2 sequence (P35968 786-1356 limits assumed): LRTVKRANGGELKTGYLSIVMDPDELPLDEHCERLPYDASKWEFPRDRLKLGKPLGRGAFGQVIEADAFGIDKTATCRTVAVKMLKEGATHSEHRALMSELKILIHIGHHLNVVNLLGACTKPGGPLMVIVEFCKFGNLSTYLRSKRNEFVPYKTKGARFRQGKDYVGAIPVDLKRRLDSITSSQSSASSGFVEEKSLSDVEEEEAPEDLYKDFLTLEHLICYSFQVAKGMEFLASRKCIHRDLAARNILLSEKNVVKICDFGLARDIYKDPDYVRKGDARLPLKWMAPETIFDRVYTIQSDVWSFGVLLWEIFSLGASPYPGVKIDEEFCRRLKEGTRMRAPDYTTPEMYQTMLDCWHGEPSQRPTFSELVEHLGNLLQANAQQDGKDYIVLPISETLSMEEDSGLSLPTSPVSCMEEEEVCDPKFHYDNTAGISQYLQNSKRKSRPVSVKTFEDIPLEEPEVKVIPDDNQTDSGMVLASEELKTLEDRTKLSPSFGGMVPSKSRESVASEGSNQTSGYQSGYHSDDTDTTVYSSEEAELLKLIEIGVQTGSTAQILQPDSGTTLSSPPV

COc1ccc(-c2n[nH]c3ccc(NS(=O)(=O)c4ccccc4S(C)(=O)=O)cc23)cc1OC [Example 198, 2-Methanesulfonyl-N-[3-(3,4-dimethoxyphenyl)-1H-indazol-5-yl]benzenesulfonamide]
inhibition at 10 µM (human FAK): 98%
inhibition at 10 µM (human KDR enzyme): 66%
inhibition at 10 µM (Aurora2 kinase): 98%
inhibition at 10 µM [1]: 76%

COc1ccc(-c2n[nH]c3ccc(NS(=O)(=O)c4ccccc4S(C)(=O)=O)cc23)c(OC)c1 [Example 199, 2-Methanesulfonyl-N-[3-(2,4-dimethoxyphenyl)-1H-indazol-5-yl]benzenesulfonamide]
inhibition at 10 µM (human FAK): 87%
inhibition at 10 µM (human KDR enzyme): 45%
inhibition at 10 µM (Aurora2 kinase): 87%
inhibition at 10 µM [1]: 27%

CS(=O)(=O)c1ccccc1S(=O)(=O)Nc1ccc2[nH]nc(-c3cccc(O)c3)c2c1 [Example 200, N-[3-(3-Hydroxyphenyl)-1H-indazol-5-yl]-2-methanesulfonyl-benzenesulfonamide]
inhibition at 10 µM (human FAK): 93%
inhibition at 10 µM (human KDR enzyme): 64%
inhibition at 10 µM (Aurora2 kinase): 94%
inhibition at 10 µM [1]: 73%

CC(C)c1ccc(-c2n[nH]c3ccc(NS(=O)(=O)c4ccccc4S(C)(=O)=O)cc23)cc1 [Example 201, N-[3-(4-Isopropylphenyl)-1H-indazol-5-yl]-2-methanesulfonyl-benzenesulfonamide]
inhibition at 10 µM (human FAK): 55%
inhibition at 10 µM (human KDR enzyme): 50%
inhibition at 10 µM (Aurora2 kinase): 82%
inhibition at 10 µM [1]: 24%

CS(=O)(=O)c1ccccc1S(=O)(=O)Nc1ccc2[nH]nc(-c3ccc(O)cc3)c2c1 [Example 202, N-[3-(4-Hydroxyphenyl)-1H-indazol-5-yl]-2-methanesulfonyl-benzenesulfonamide]
inhibition at 10 µM (human FAK): 97%
inhibition at 10 µM (human KDR enzyme): 79%
inhibition at 10 µM (Aurora2 kinase): 96%
inhibition at 10 µM [1]: 83%

CC(C)c1cccc(-c2n[nH]c3ccc(NS(=O)(=O)c4ccccc4S(C)(=O)=O)cc23)c1 [Example 203, N-[3-(3-Isopropylphenyl)-1H-indazol-5-yl]-2-methanesulfonyl-benzenesulfonamide]
inhibition at 10 µM (human FAK): 86%
inhibition at 10 µM (human KDR enzyme): 39%
inhibition at 10 µM (Aurora2 kinase): 84%
inhibition at 10 µM [1]: 59%

Cc1ccc(-c2n[nH]c3ccc(NS(=O)(=O)c4ccccc4S(C)(=O)=O)cc23)cc1N [Example 204, N-[3-(3-Amino-4-methyl-phenyl)-1H-indazol-5-yl]-2-methanesulfonyl-benzenesulfonamide]
inhibition at 10 µM (human FAK): 97%
inhibition at 10 µM (human KDR enzyme): 67%
inhibition at 10 µM (Aurora2 kinase): 95%
inhibition at 10 µM [1]: 78%

CS(=O)(=O)c1ccccc1S(=O)(=O)Nc1ccc2[nH]nc(-c3ccc(Cl)c(Cl)c3)c2c1 [Example 205, N-[3-(3,4-Dichlorophenyl)-1H-indazol-5-yl]-2-methanesulfonyl-benzenesulfonamide]
inhibition at 10 µM (human FAK): 90%
inhibition at 10 µM (human KDR enzyme): 42%
inhibition at 10 µM (Aurora2 kinase): 86%
inhibition at 10 µM [1]: 66%

CS(=O)(=O)c1ccccc1S(=O)(=O)Nc1ccc2[nH]nc(-c3ccc(OC(F)(F)F)cc3)c2c1 [Example 206, N-[3-(4-Trifluoromethoxy-phenyl)-1H-indazol-5-yl]-2-methanesulfonyl-benzenesulfonamide]
inhibition at 10 µM (human FAK): 58%
inhibition at 10 µM (human KDR enzyme): 48%
inhibition at 10 µM (Aurora2 kinase): 85%
inhibition at 10 µM [1]: 61%

CC(=O)c1ccc(-c2n[nH]c3ccc(NS(=O)(=O)c4ccccc4S(C)(=O)=O)cc23)cc1 [Example 207, N-[3-(4-Acetylphenyl)-1H-indazol-5-yl]-2-methanesulfonyl-benzenesulfonamide]
inhibition at 10 µM (human FAK): 91%
inhibition at 10 µM (human KDR enzyme): 45%
inhibition at 10 µM (Aurora2 kinase): 94%
inhibition at 10 µM [1]: 56%

CS(=O)(=O)c1ccccc1S(=O)(=O)Nc1ccc2[nH]nc(-c3cccc(Cl)c3Cl)c2c1 [Example 208, N-[3-(2,3-Dichlorophenyl)-1H-indazol-5-yl]-2-methanesulfonyl-benzenesulfonamide]
inhibition at 10 µM (human FAK): -1%
inhibition at 10 µM (human KDR enzyme): 25%
inhibition at 10 µM (Aurora2 kinase): 56%
inhibition at 10 µM [1]: 0%
